Data published in patent US11001892B2, “Methods of diagnosing endometriosis” (The Regents of the University of California, priority 2007, dated 2021).

Key:
[1] = test system: TOB1; conditions: cultured human endometrial stromal cells from women with endometriosis; cited from earlier work
[2] = test system: endometrial stromal fibroblasts (ESFs); test: Regulation of steroidogenic enzymes in ESFs by cAMP and/or E2/P4, Q-PCR; type: cell-based, human
Description: ESFs were isolated from endometrial biopsies from 15 women with and 7 women without endometriosis. […] IGFBP1 and PRL protein secretion was measured by ELISA. […] Purity of ESF populations at passage 2 was evaluated by immunohistochemistry using cytokeratin, vimentin and CD45 antibodies. Endometrial tissue biopsies were obtained from mid-secretory phase endometrium from 5 women without and 5 women with severe endometriosis.

[3] = test system: pro-MMP-3 or pro-MMP-7 secretion; conditions: in vitro treatment of endometrial tissues from women with endometriosis; cited from earlier work
[4] = test system: ERK; test: ERK 1/2 phosphorylation in cultured eutopic endometrial stromal cells; type: cell-based, human; conditions: eutopic endometrial stromal cells from patients with endometriosis; treatment within 60 min; level then similar to cells from patients without endometriosis
Text: Growth of ectopic endometrial tissues in the pelvic cavity, which is a hallmark of endometriosis, is associated with elevated levels of inflammatory cytokines and increased number of activated macrophages in the peritoneal environment. […] In this example, the expression of inflammatory-associated genes in cultured eutopic endometrial stromal cells from women with versus without endometriosis was examined using quantitative RT-PCR. […] Interleukin-1 beta and cyclooxygenase-2 mRNA expression were similar in cultured endometrial stromal cells from women with vs. without endometriosis. Cell proliferation was similar in eutopic endometrial stromal cells from women with versus without endometriosis when cultured in 0%, 2%, or 10% charcoal stripped FBS-containing medium or in the presence of insulin. Increased IL-8 production in endometriosis is accompanied by a strong increased phosphorylation of ERK ½ (P=0.04), a signaling molecule shown to activate IL-8 expression in endometrial stromal cells. […] Since phosphorylation of ERK and IL-8 expression increases cell migration and invasion of endometrial stromal cells, dysregulation of MAPK activity and IL-8 expression in the eutopic endometrial stromal cells of women with endometriosis may be associated with the pathophysiology and spread of the disease.

[5] = test system: eutopic endometrium of women with endometriosis; conditions: cited from earlier work

## IL-1β: a central cytokine in endometriosis
[1]
  TOB1 expression: reduced TOB1 expression

## CC(=O)[C@H]1CC[C@H]2[C@@H]3CCC4=CC(=O)CC[C@]4(C)[C@H]3CC[C@]12C [P4, progesterone]
[2]; ESFs from women with vs without endometriosis
  Cyp17A1 (P450c17) expression: slightly down-regulated
[2]; ESFs, cAMP effect in women with endometriosis
  Aromatase (Cyp19A1) regulation: not regulated
[2]; P4 stimulated ESFs from women with endometriosis
  3βHSD1 expression: Down regulation
[3]
  suppression of pro-MMP-3 or pro-MMP-7 secretion: fails to fully suppress
[4]
  high basal ERK phosphorylation: successfully diminished
[5]; endometrial tissues from women with endometriosis treated in vitro
  prevention of the ability of tissues to establish experimental disease in mice: fails to prevent

## Cn1c(C#N)ccc1-c1ccc2c(c1)C(C)(C)OC(=S)N2 [tanaproget]
[5]; endometrial cell culture and nude mouse models
  progesterone insensitivity of eutopic endometrium of women with endometriosis: could be corrected
